Experimental data taken from paper PMC10149936, “Cofilin activation in pancreatic acinar cells plays a pivotal convergent role for mediating CCK-stimulated enzyme secretion and growth” (Frontiers in Physiology, 2023).

Tests used:
Assay type in all cases: cell-based
[1] = test system: cofilin (pS3) in AR42J cells; test: cofilin activation (pS3 cofilin Western blot) in AR42J cells; settings: Cytochalasin D 10 µM or Paclitaxel 5 µM, 4 h; A71378 30 nM 10 min
Protocol: (§1) CCK1 receptor transfected Panc-1 (CCK1-R/Panc-1) cells ([Berna et al., 2009]) and AR42J cells, were cultured in DMEM supplemented with 10% FBS and 1% penicillin/streptomycin and in RPMI supplemented with 10% FBS and 1% penicillin/streptomycin, respectively; and split 1:10 weekly with trypsin/EDTA, after washing in PBS. Finally, cells were seeded in 6-well plate and serum starved overnight, until they were 80% confluent. Cells were incubated at 37°C in 5% CO2/95% air. AR42J cells were treated with 100 nM dexamethasone for 72°h, which stimulates their differentiation into exocrine cells ([Logsdon, 1986]).
(§2) Western blotting and immunoprecipitation were performed as described previously ([Ramos-Alvarez and Jensen, 2018]). Whole cell lysates were subjected to SDS-PAGE using 4%–20% Tris–Glycine gels. […] The intensity of the protein bands was measured using GeneTools software from Syngene, which were assessed in the linear detection range.
(§3) FIGURE 12 Effect of two cofilin inhibitors, Cytochalasin D or Paclitaxel (A, B), or cofilin siRNA (C), on the ability of A71378 (30 and 10 nM) to alter activation of cofilin (A) and p44/42 (B, C). […] Western blots were analyzed using anti-pS3 cofilin, anti-pT202/Y204 p44/42 and Tubulin. Bands were visualized using chemiluminescence and quantified by densitometry. […] Results are expressed as % of basal stimulation of the control group. […]

[2] = test system: p44/42 MAPK in AR42J cells; test: p44/42 MAPK activation (pT202/Y204 Western blot) in AR42J cells; settings: Cytochalasin D 10 µM or Paclitaxel 5 µM, 4 h; A71378 30 nM 10 min
Protocol: as §1
as §2, with “range. […]” for “range.”
as §3

[3] = test system: SSH1 (pS978) in pancreatic acini; test: SSH1 phosphorylation (pS978 SSH1 Western blot) in isolated rat pancreatic acini; settings: for SSH1 dephosphorylation (activation) at short incubation: 0.5 min and 1.5 min, data not shown; for SSH1 phosphorylation (i.e., deactivation), maximum increment: 30 min
Protocol: Pancreatic acini preparations were obtained by collagenase digestion as previously described ([Bissonnette et al., 1984]; [Sato et al., 1989]; [Ramos-Alvarez and Jensen, 2018]). […] Isolated acini and CCK1-R/Panc-1 cells (M&M 2.2.1) were also preincubated with two SSH1 inhibitors, D3 (25 μM, 1 h) ([Li et al., 2015]) or SE (50 μM, 3 h for acini; 24 h for CCK1-R/Panc-1 cells) ([Lee et al., 2017]). […] Cells were lysed in lysis buffer (50 mM Tris/HCl pH 7.5, 150 mM NaCl, 1% Triton X-100, 1% deoxycholate, 0.1% sodium azide, 1 mM EGTA, 0.4 mM EDTA, 0.2 mM sodium orthovanadate, 1 mM PMSF, and one protease inhibitor tablet per 10 mL). After sonication, lysates were centrifuged at 10,000×g for 15 min at 4°C and protein concentration was measured using the Bio-Rad protein assay reagent. Finally, cells were processed as below for Western blotting.
Western blotting and immunoprecipitation were performed as described previously ([Ramos-Alvarez and Jensen, 2018]). Whole cell lysates were subjected to SDS-PAGE using 4%–20% Tris–Glycine gels. […] Finally, membranes were then washed again twice in blocking buffer for 4 min, twice in washing buffer for 4 min, incubated for 4 min with chemiluminescence detection reagents. The intensity of the protein bands was measured using GeneTools software from Syngene, which were assessed in the linear detection range.
FIGURE 2 Time course of phosphorylation of Lim kinase (LIMK) (A), cofilin (B) and Slingshot 1 phosphatase (SSH1) (C) induced by CCK-8 and TPA. Isolated pancreatic acini were incubated with either no addition (control), CCK-8 (0.3 and 100 nM) or TPA (1 µM) for the indicated periods of time and then lysed. Western blots were analyzed using anti-pT508 LIMK, anti-pS3 cofilin and anti-pS978 SSH1, which […] the activation states of LIMK, cofilin and SSH1. Bands were visualized using chemiluminescence and quantified by densitometry. Top: Results of a representative blot of three independent experiments are shown. Bottom: Means ± S.E. of at least 3 independent experiments. Results are expressed as % of basal stimulation of the control group. *, p < 0.05 compared to the control group.

| Molecule | inhibition of CCK1-R-induced activation of cofilin in AR42J cells [1] | decrease of A71378-mediated activation of p44/42 [2] [%] | SSH1 dephosphorylation (activation) at short incubation [3] | SSH1 phosphorylation (i.e., deactivation), maximum increment ([3]; TPA 1 µM) [%] | SSH1 phosphorylation (i.e., deactivation), maximum increment ([3]; CCK-8 100 nM) [%] |
| --- | --- | --- | --- | --- | --- |
| C=C1[C@@H](C)[C@H]2[C@H](Cc3ccccc3)NC(=O)[C@]23[C@H](OC(C)=O)/C=C/[C@@](C)(O)C(=O)[C@@H](C)C/C=C/[C@H]3[C@@H]1O [Cytochalasin D] | completely inhibited | 34 | – | – | – |
| CC(=O)O[C@H]1C(=O)[C@@]2(C)[C@H]([C@H](OC(=O)c3ccccc3)[C@]3(O)C[C@H](OC(=O)[C@H](O)[C@@H](NC(=O)c4ccccc4)c4ccccc4)C(C)=C1C3(C)C)[C@]1(OC(C)=O)CO[C@@H]1C[C@@H]2O [Paclitaxel] | completely inhibited | 36 | – | – | – |
| CCCCCCCCCCCCCC(=O)O[C@@H]1[C@@H](C)[C@@]2(O)[C@@H](C=C(CO)C[C@]3(O)C(=O)C(C)=C[C@@H]23)[C@H]2C(C)(C)[C@]12OC(C)=O [TPA, 12-O-tetradecanoylphobol-13-acetate] | – | – | no dephosphorylation of SSH1 (activation) was seen | 151 | – |
| COOH-terminal octapeptide of cholecystokinin [CCK-8] | – | – | no dephosphorylation of SSH1 (activation) was seen | – | 162 |
